Laboratory results as given in PubChem BioAssay AID1963851 (Molecular Pharmacology Branch, DTP, NCI, 2024).

Tested on: 188146-221-R-J1-PDC complex spheroid viability
Test: Anticancer human tumor 188146-221-R-J1-PDC patient-derived colon adenocarcinoma cell line growth inhibition [POLQ]
Conditions: for IC50: curve of first compound; for viability, T/C: stronger effect = lower value
Summary of the method: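 PDC + HUVEC + MSC complex spheroids; POLQ inhibitors ± partner drugs; top conc. at/near clinical Cmax, else 10 microM (SN-38 1 microM), half-log dilutions; 37 degrees C, 5% CO2.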

[1] = second compound 0.0316 µM, first compound 0.0316 µM
[2] = second compound 0.0316 µM, first compound 0.1 µM
[3] = second compound 0.0316 µM, first compound 0.316 µM
[4] = second compound 0.0316 µM, first compound 1 µM
[5] = second compound 0.0316 µM, first compound 3.16 µM
[6] = second compound 0.0316 µM, first compound 10 µM
[7] = second compound 0.1 µM, first compound 0.0316 µM
[8] = second compound 0.1 µM, first compound 0.1 µM
[9] = second compound 0.1 µM, first compound 0.316 µM
[10] = second compound 0.1 µM, first compound 1 µM
[11] = second compound 0.1 µM, first compound 3.16 µM
[12] = second compound 0.1 µM, first compound 10 µM
[13] = second compound 0.316 µM, first compound 0.0316 µM
[14] = second compound 0.316 µM, first compound 0.1 µM
[15] = second compound 0.316 µM, first compound 0.316 µM
[16] = second compound 0.316 µM, first compound 1 µM
[17] = second compound 0.316 µM, first compound 3.16 µM
[18] = second compound 0.316 µM, first compound 10 µM
[19] = second compound 1 µM, first compound 0.0316 µM
[20] = second compound 1 µM, first compound 0.1 µM
[21] = second compound 1 µM, first compound 0.316 µM
[22] = second compound 1 µM, first compound 1 µM
[23] = second compound 1 µM, first compound 3.16 µM
[24] = second compound 1 µM, first compound 10 µM
[25] = second compound 3.16 µM, first compound 0.0316 µM
[26] = second compound 3.16 µM, first compound 0.1 µM
[27] = second compound 3.16 µM, first compound 0.316 µM
[28] = second compound 3.16 µM, first compound 1 µM
[29] = second compound 3.16 µM, first compound 3.16 µM
[30] = second compound 3.16 µM, first compound 10 µM
[31] = second compound 10 µM, first compound 0.0316 µM
[32] = second compound 10 µM, first compound 0.1 µM
[33] = second compound 10 µM, first compound 0.316 µM
[34] = second compound 10 µM, first compound 1 µM
[35] = second compound 10 µM, first compound 3.16 µM
[36] = second compound 10 µM, first compound 10 µM
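Further: spheroids exposed to compounds for seven days.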
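Wherever viability, T/C is given: 100% = DMSO vehicle control viability.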

## C#Cc1c(F)ccc2cc(O)cc(-c3ncc4c(N5CC6CCC(C5)N6)nc(OCC56CCCN5CC(F)C6)nc4c3F)c12 (stereo not drawn) + Nc1ccc(C#CCN(C(=O)Cc2ncc(C(F)(F)F)cc2C(F)(F)F)c2ccc(F)cc2)nn1
Second compound 0.0316 µM
  IC50: > 10 µM
Second compound 0.1 µM
  IC50: > 10 µM
Second compound 0.316 µM
  IC50: > 10 µM
Second compound 1 µM
  IC50: > 10 µM
Second compound 3.16 µM
  IC50: > 10 µM
Second compound 10 µM
  IC50: > 10 µM
[1]
  viability, T/C: 94.3%
[2]
  viability, T/C: 100%
[3]
  viability, T/C: 98.2%
[4]
  viability, T/C: 89.7%
[5]
  viability, T/C: 83.2%
[6]
  viability, T/C: 89.4%
[7]
  viability, T/C: 99.9%
[8]
  viability, T/C: 105%
[9]
  viability, T/C: 95.5%
[10]
  viability, T/C: 95.1%
[11]
  viability, T/C: 89.9%
[12]
  viability, T/C: 103%
[13]
  viability, T/C: 103%
[14]
  viability, T/C: 83.5%
[15]
  viability, T/C: 100%
[16]
  viability, T/C: 96.8%
[17]
  viability, T/C: 87.8%
[18]
  viability, T/C: 86.6%
[19]
  viability, T/C: 88.6%
[20]
  viability, T/C: 86.7%
[21]
  viability, T/C: 98.8%
[22]
  viability, T/C: 92.3%
[23]
  viability, T/C: 91.3%
[24]
  viability, T/C: 80.8%
[25]
  viability, T/C: 106%
[26]
  viability, T/C: 102%
[27]
  viability, T/C: 102%
[28]
  viability, T/C: 95.9%
[29]
  viability, T/C: 100%
[30]
  viability, T/C: 86.5%
[31]
  viability, T/C: 102%
[32]
  viability, T/C: 93.5%
[33]
  viability, T/C: 87.1%
[34]
  viability, T/C: 105%
[35]
  viability, T/C: 106%
[36]
  viability, T/C: 89.5%

## CCc1cc2c(N3CCc4c(cc(Cn5ccnc5)cc4-c4cn(C)nc4C(F)(F)F)C3=O)cc(C)nc2c(OC)n1 + Nc1ccc(C#CCN(C(=O)Cc2ncc(C(F)(F)F)cc2C(F)(F)F)c2ccc(F)cc2)nn1
Second compound 0.0316 µM
  IC50: 8.54 µM
Second compound 0.1 µM
  IC50: 7.95 µM
Second compound 0.316 µM
  IC50: 6.94 µM
Second compound 1 µM
  IC50: > 10 µM
Second compound 3.16 µM
  IC50: 7.01 µM
Second compound 10 µM
  IC50: 8.08 µM
[1]
  viability, T/C: 89.1%
[2]
  viability, T/C: 101%
[3]
  viability, T/C: 74.4%
[4]
  viability, T/C: 85.7%
[5]
  viability, T/C: 71.2%
[6]
  viability, T/C: 46.3%
[7]
  viability, T/C: 119%
[8]
  viability, T/C: 101%
[9]
  viability, T/C: 103%
[10]
  viability, T/C: 95%
[11]
  viability, T/C: 66%
[12]
  viability, T/C: 46%
[13]
  viability, T/C: 120%
[14]
  viability, T/C: 101%
[15]
  viability, T/C: 94%
[16]
  viability, T/C: 103%
[17]
  viability, T/C: 66.1%
[18]
  viability, T/C: 40.8%
[19]
  viability, T/C: 107%
[20]
  viability, T/C: 96.3%
[21]
  viability, T/C: 104%
[22]
  viability, T/C: 95.2%
[23]
  viability, T/C: 85.5%
[24]
  viability, T/C: 50.4%
[25]
  viability, T/C: 111%
[26]
  viability, T/C: 115%
[27]
  viability, T/C: 109%
[28]
  viability, T/C: 85.8%
[29]
  viability, T/C: 68.8%
[30]
  viability, T/C: 42.1%
[31]
  viability, T/C: 93.7%
[32]
  viability, T/C: 102%
[33]
  viability, T/C: 99%
[34]
  viability, T/C: 84.8%
[35]
  viability, T/C: 69.5%
[36]
  viability, T/C: 45.6%

## CCc1cc2c(N3CCc4c(cc(Cn5ccnc5)cc4-c4cn(C)nc4C(F)(F)F)C3=O)ccnc2c(OC)n1 + Nc1ccc(C#CCN(C(=O)Cc2ncc(C(F)(F)F)cc2C(F)(F)F)c2ccc(F)cc2)nn1
Second compound 0.0316 µM
  IC50: > 10 µM
Second compound 0.1 µM
  IC50: 9.81 µM
Second compound 0.316 µM
  IC50: > 10 µM
Second compound 1 µM
  IC50: 9.79 µM
Second compound 3.16 µM
  IC50: > 10 µM
Second compound 10 µM
  IC50: > 10 µM
[1]
  viability, T/C: 105%
[2]
  viability, T/C: 107%
[3]
  viability, T/C: 90.8%
[4]
  viability, T/C: 93.7%
[5]
  viability, T/C: 73%
[6]
  viability, T/C: 54.6%
[7]
  viability, T/C: 110%
[8]
  viability, T/C: 116%
[9]
  viability, T/C: 87.9%
[10]
  viability, T/C: 104%
[11]
  viability, T/C: 82.3%
[12]
  viability, T/C: 48.6%
[13]
  viability, T/C: 119%
[14]
  viability, T/C: 108%
[15]
  viability, T/C: 101%
[16]
  viability, T/C: 91.4%
[17]
  viability, T/C: 75.6%
[18]
  viability, T/C: 51.3%
[19]
  viability, T/C: 113%
[20]
  viability, T/C: 101%
[21]
  viability, T/C: 85.8%
[22]
  viability, T/C: 95.6%
[23]
  viability, T/C: 72.4%
[24]
  viability, T/C: 48.2%
[25]
  viability, T/C: 106%
[26]
  viability, T/C: 91%
[27]
  viability, T/C: 94.1%
[28]
  viability, T/C: 87.8%
[29]
  viability, T/C: 87.1%
[30]
  viability, T/C: 50%
[31]
  viability, T/C: 110%
[32]
  viability, T/C: 113%
[33]
  viability, T/C: 107%
[34]
  viability, T/C: 82.5%
[35]
  viability, T/C: 71.2%
[36]
  viability, T/C: 52.5%

## COc1cc2cc(C(=O)CCC(=O)O)sc2cc1OC + Nc1ccc(C#CCN(C(=O)Cc2ncc(C(F)(F)F)cc2C(F)(F)F)c2ccc(F)cc2)nn1
Second compound 0.0316 µM
  IC50: > 10 µM
Second compound 0.1 µM
  IC50: > 10 µM
Second compound 0.316 µM
  IC50: > 10 µM
Second compound 1 µM
  IC50: > 10 µM
Second compound 3.16 µM
  IC50: > 10 µM
Second compound 10 µM
  IC50: > 10 µM
[1]
  viability, T/C: 115%
[2]
  viability, T/C: 102%
[3]
  viability, T/C: 96.4%
[4]
  viability, T/C: 119%
[5]
  viability, T/C: 90.2%
[6]
  viability, T/C: 105%
[7]
  viability, T/C: 105%
[8]
  viability, T/C: 115%
[9]
  viability, T/C: 107%
[10]
  viability, T/C: 96.2%
[11]
  viability, T/C: 118%
[12]
  viability, T/C: 102%
[13]
  viability, T/C: 109%
[14]
  viability, T/C: 100%
[15]
  viability, T/C: 89.3%
[16]
  viability, T/C: 107%
[17]
  viability, T/C: 107%
[18]
  viability, T/C: 97.4%
[19]
  viability, T/C: 117%
[20]
  viability, T/C: 116%
[21]
  viability, T/C: 106%
[22]
  viability, T/C: 96.3%
[23]
  viability, T/C: 104%
[24]
  viability, T/C: 102%
[25]
  viability, T/C: 105%
[26]
  viability, T/C: 114%
[27]
  viability, T/C: 96.8%
[28]
  viability, T/C: 119%
[29]
  viability, T/C: 109%
[30]
  viability, T/C: 118%
[31]
  viability, T/C: 101%
[32]
  viability, T/C: 130%
[33]
  viability, T/C: 98.5%
[34]
  viability, T/C: 113%
[35]
  viability, T/C: 104%
[36]
  viability, T/C: 120%
